Reference: PMC11055893, “Cyclodipeptide oxidase is an enzyme filament” (Nature Communications, 2024)

B1: AlbB expressed alone (His tag removed) (natural protein, Streptomyces noursei)
chain: MNPGETVLPPQLREEIALLAVYLLSSGRGLLEEPADYGIYRCTDGARRALQLLDEHGGSTARLTAVRERLDEVMFAPMGEDRDMGAILDDLCRQMADALPEIETP
notes: AlbB, Streptomyces noursei; gene PCR-amplified from the AlbAB-encoding pGM1190 vector into pETDuet-1 multiple cloning site 2, with a TEV site to remove the tag; also called His-tagged AlbB; source: E. coli BL21 (DE3), pETDuet-1, purified (His-Trap, TEV cleavage, second His-Trap); not shown: His tag, N-terminal, cleaved

Legend:
AlbAB = target: T1, AlbAB (Streptomyces noursei, UniProt Q8GED8+Q8GED9, Q8GED9:S77A); assay: coupled horseradish peroxidase H2O2 fluorescence assay, Michaelis-Menten fit; assay type: biochemical; conditions: 100 mM Tris pH 8.0, 30 °C, O2, 1 mM 4-hydroxyphenylacetic acid, 0.1 U HRP, 0.25 µM AlbAB
T1 construct: gene albA; AlbA ca. 21 kDa, AlbB ca. 11 kDa; filament of alternating AlbA2 and AlbB2 dimers; FMN covalent at AlbA C115
T1 sequence (Q8GED9 24-219 S77A, one chain of several): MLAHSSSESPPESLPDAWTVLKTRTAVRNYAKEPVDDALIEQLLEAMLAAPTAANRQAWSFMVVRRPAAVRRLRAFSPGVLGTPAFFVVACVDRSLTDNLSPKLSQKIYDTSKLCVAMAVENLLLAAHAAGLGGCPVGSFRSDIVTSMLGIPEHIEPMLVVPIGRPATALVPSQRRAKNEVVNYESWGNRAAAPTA

[1] = target: the molecule itself; assay: SEC + other: dynamic light scattering; DLS at 25 °C, AlbAB 0.1 mg/mL and AlbB 1 mg/mL in 150 mM NaCl, 20 mM Tris pH 7.5; size exclusion chromatography

Molecule	KM (AlbAB)	stoichiometry N [1]
CC(C)C[C@@H]1NC(=O)[C@H](Cc2ccccc2)NC1=O [cyclo(L-Phe-L-Leu)]	velocities for AlbAB and AlbA-S54A/AlbB were then fit to a Michaelis-Menton non-linear regression model	
B1		2
